Where two headings read alike, the source gives them in different places.
How the values were obtained:
GLP-1R [1] = biological target: T1, GLP-1R (Homo sapiens, UniProt P43220); test: PathHunter β-arrestin assay; assay type: cell-based
In short: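 Cells (5,000/well) plated overnight, then exposed to a 22-point 2-fold agonist dilution series in medium with 0.2% BSA for 90 min at 37 °C, 5% CO2. PathHunter detection reagent added; after 3 h at room temperature in the dark, luminescence read.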

GLP-1R [2] = biological target: T1, GLP-1R; test: HitHunter cAMP assay (GLP-1R); assay type: cell-based; conditions: for Emax: read-out: (Emax) GLP-1R
In short: (§1)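 Suspension cells (10,000/well) in HBSS with 10 mM HEPES, 625 μM IBMX, 0.2% BSA exposed to 22-point 2-fold agonist series in duplicate for 30 min at room temperature. cAMP measured by antibody immunocompetition with overnight development, luminescence read-out.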

GIP-R = biological target: T2, GIP-R (Homo sapiens, UniProt P48546); test: HitHunter cAMP assay (GIP-R); assay type: cell-based; conditions: for EC50: EC50 GIP-R/nM; for Emax: read-out: (Emax) GIP-R
T2 sequence (P48546 22-466): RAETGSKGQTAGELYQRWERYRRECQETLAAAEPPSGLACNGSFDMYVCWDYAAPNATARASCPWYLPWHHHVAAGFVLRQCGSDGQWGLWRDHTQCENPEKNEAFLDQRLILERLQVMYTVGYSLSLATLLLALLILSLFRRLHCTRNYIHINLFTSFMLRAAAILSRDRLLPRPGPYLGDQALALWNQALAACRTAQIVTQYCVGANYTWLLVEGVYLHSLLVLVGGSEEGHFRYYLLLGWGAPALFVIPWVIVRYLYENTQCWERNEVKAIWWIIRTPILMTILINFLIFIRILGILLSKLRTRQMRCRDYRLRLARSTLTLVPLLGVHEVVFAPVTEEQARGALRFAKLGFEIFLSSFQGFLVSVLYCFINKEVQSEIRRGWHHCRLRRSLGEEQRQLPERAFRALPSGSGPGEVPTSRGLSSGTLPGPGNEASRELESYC
In short: as §1

mice [3] = test: Conditioned taste aversion (CTA) in mice; assay type: in vivo, mouse; conditions: s.c., 30 nmol/kg, saccharine preference vs vehicle
Procedure: A value of CTA=0.0-0.6 indicates significant aversion to a compound. The conditioned taste aversion assay measures the preference for a dilute saccharin solution that is associated with compound administration.
One week before start of experiment (Day-7), animals were transferred to single house double grommet cages. A 50 ml water bottle was placed, and consistently replaced when refilled in the same grommet to habituate the animal to a “water” side. After 7 days of baseline water consumption, animals began the taste preference procedure. On Day 1, the animals were weighed and deprived of water at […]. On acquisition day (Day 2), mice had access to a single bottle containing 0.15% saccharin solution, on the opposite side to the “water” habituated side and allowed to consume for 3 h, from 6 pm until 9 pm. The saccharine bottles were then removed and weighed to record the 3 h consumption. […] On Day 3, the water was removed and weighed at 6 pm. On Day 4, both saccharine and water bottles were weighed and returned simultaneously to respective grommet at 6 pm. On Day 5, the bottles were removed at 6 pm and weighed. Saccharine consumption was measured as a percent of the total amount of fluid consumed. The reduction of saccharin consumption during the retrieval was used as a measure of CTA strength. Liraglutide and semaglutide were used as positive controls.

mice [4] = test: Glucose tolerance test (GTT); assay type: in vivo, mouse; conditions: 24 h GTT, s.c., percent of vehicle
In short: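 Compounds diluted in PBS from 1 mM DMSO stocks and given subcutaneously 15 min (5-6 h fast), 4 h (16 h overnight fast), 16 h or 24 h before intraperitoneal glucose (2 g/kg). Tail blood glucose read at 10–120 min post-glucose, at least 6 mice per time-point. Glucose AUC over time determined.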

mice [5] = conditions: general statement; cited from earlier work
GLP-1R [6] = biological target: T1, GLP-1R; conditions: general statement; cited from earlier work

T1 sequence (P43220 24-463): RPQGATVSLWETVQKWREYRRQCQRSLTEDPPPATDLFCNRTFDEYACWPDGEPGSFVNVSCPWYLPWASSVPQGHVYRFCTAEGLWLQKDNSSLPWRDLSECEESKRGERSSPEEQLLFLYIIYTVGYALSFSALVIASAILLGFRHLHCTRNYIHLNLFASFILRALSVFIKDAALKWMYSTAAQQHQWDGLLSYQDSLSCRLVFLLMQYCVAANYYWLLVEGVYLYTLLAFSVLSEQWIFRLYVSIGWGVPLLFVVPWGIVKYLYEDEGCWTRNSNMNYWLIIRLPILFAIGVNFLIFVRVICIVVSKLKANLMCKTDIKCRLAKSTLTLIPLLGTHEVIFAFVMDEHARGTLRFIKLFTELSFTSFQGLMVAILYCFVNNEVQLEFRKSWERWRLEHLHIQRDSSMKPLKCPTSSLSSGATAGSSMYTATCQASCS

Question: What does the source list for `CCCCCCCCCCCCCCCC(=O)N[C@@H](CCC(=O)NCCCC[C@H](NC(=O)[C@H](CO)NC(=O)[C@@H]1CCCN1C(=O)[C@@H]1CCCN1C(=O)[C@@H]1CCCN1C(=O)[C@H](C)NC(=O)CNC(=O)[C@H](CO)NC(=O)[C@H](CO)NC(=O)[C@@H]1CCCN1C(=O)CNC(=O)CNC(=O)[C@H](C)NC(=O)[C@H](CC(C)C)NC(=O)[C@H](CC(C)C)NC(=O)[C@H](Cc1c[nH]c2ccccc12)NC(=O)[C@H](CC(N)=O)NC(=O)[C@@H](NC(=O)[C@H](Cc1ccccc1)NC(=O)[C@H](CCC(=O)O)NC(=O)C(C)(C)NC(=O)[C@H](C)NC(=O)[C@H](C)NC(=O)[C@H](CCC(N)=O)NC(=O)[C@H](CCCCN)NC(=O)[C@H](CC(=O)O)NC(=O)[C@H](CC(C)C)NC(=O)[C@H](Cc1ccc(O)cc1)NC(=O)[C@@H](NC(=O)[C@H](CO)NC(=O)[C@H](Cc1ccc(O)cc1)NC(=O)[C@H](CC(=O)O)NC(=O)[C@H](CO)NC(=O)[C@@H](NC(=O)[C@H](Cc1ccccc1)NC(=O)[C@@H](NC(=O)CNC(=O)[C@H](CCC(=O)O)NC(=O)CSCC(=O)NCCN1CCC(O)CC1=O)[C@@H](C)O)[C@@H](C)O)[C@@H](C)CC)C(C)C)C(N)=O)C(=O)O` (single isomer, unassigned) [Compound 202]?
Answer: EC50 (GLP-1R [1]): > 1000 nM; EC50 (GLP-1R [2]; EC50 GLP-1R/nM, Table 3A, cAMP): < 0.1 nM; EC50 (GIP-R; Table 3A, cAMP): 0.1 to 1 nM; Emax (GIP-R; Table 3A, cAMP): 67%; CTA score (mice [3]): 4 (Score 4 = 76-100%)

Question: Which results are given for `CCCCCCCCCCCCCCCC(=O)N[C@@H](CCC(=O)NCCCC[C@H](NC(=O)[C@H](CO)NC(=O)[C@@H]1CCCN1C(=O)[C@@H]1CCCN1C(=O)[C@@H]1CCCN1C(=O)[C@H](C)NC(=O)CNC(=O)[C@H](CO)NC(=O)[C@H](CO)NC(=O)[C@@H]1CCCN1C(=O)CNC(=O)CNC(=O)[C@H](C)NC(=O)[C@H](CC(C)C)NC(=O)[C@H](CC(C)C)NC(=O)[C@H](Cc1c[nH]c2ccccc12)NC(=O)[C@H](CC(N)=O)NC(=O)[C@@H](NC(=O)[C@H](Cc1ccccc1)NC(=O)[C@H](CCC(=O)O)NC(=O)C(C)(C)NC(=O)[C@H](C)NC(=O)[C@H](C)NC(=O)[C@H](CCC(N)=O)NC(=O)[C@H](CCCCN)NC(=O)[C@H](CC(=O)O)NC(=O)[C@H](CC(C)C)NC(=O)[C@H](Cc1ccc(O)cc1)NC(=O)[C@@H](NC(=O)[C@H](CO)NC(=O)[C@H](Cc1ccc(O)cc1)NC(=O)[C@H](CC(=O)O)NC(=O)[C@H](CO)NC(=O)[C@@H](NC(=O)[C@H](Cc1ccccc1)NC(=O)[C@@H](NC(=O)CNC(=O)[C@H](CCC(=O)O)NC(=O)CSCC(=O)NCCN1C(=O)C[C@H](C)C1=O)[C@@H](C)O)[C@@H](C)O)[C@@H](C)CC)C(C)C)C(N)=O)C(=O)O` [Compound 91]?
Answer: AUC score (mice [4]; dose range 2-5 nmol/kg): 3 (AUC score 3 = 51-75%); EC50 (GLP-1R [1]): > 1000 nM; EC50 (GLP-1R [2]; EC50 GLP-1R/nM, Table 3, cAMP): 1 to 10 nM; EC50 (GLP-1R [2]; EC50 GLP-1R/nM, Table 3A, cAMP): 1 to 10 nM; Emax (GLP-1R [2]; Table 3, cAMP): 98%; Emax (GLP-1R [2]; Table 3A, cAMP): 98%; EC50 (GIP-R; Table 3, cAMP): 1 to 10 nM; EC50 (GIP-R; Table 3A, cAMP): 1 to 10 nM; Emax (GIP-R; Table 3, cAMP): 85%; Emax (GIP-R; Table 3A, cAMP): 85%; CTA score (mice [3]): 4 (Score 4 = 76-100%)

Question: Which AUC score (mice [4]; dose range 5.1-15 nmol/kg) does the source give for `CCCCCCCCCCCCCCCC(=O)N[C@@H](CCC(=O)NCCCC[C@H](NC(=O)[C@H](CO)NC(=O)[C@@H]1CCCN1C(=O)[C@@H]1CCCN1C(=O)[C@@H]1CCCN1C(=O)[C@H](C)NC(=O)CNC(=O)[C@H](CO)NC(=O)[C@H](CO)NC(=O)[C@@H]1CCCN1C(=O)CNC(=O)CNC(=O)[C@H](C)NC(=O)[C@H](CC(C)C)NC(=O)[C@H](CC(C)C)NC(=O)[C@H](Cc1c[nH]c2ccccc12)NC(=O)[C@H](CC(N)=O)NC(=O)[C@@H](NC(=O)[C@H](Cc1ccccc1)NC(=O)[C@H](CCC(=O)O)NC(=O)C(C)(C)NC(=O)[C@H](C)NC(=O)[C@H](C)NC(=O)[C@H](CCC(N)=O)NC(=O)[C@H](CCCCN)NC(=O)[C@H](CC(=O)O)NC(=O)[C@H](CC(C)C)NC(=O)[C@H](Cc1ccc(O)cc1)NC(=O)[C@@H](NC(=O)[C@H](CO)NC(=O)[C@H](Cc1ccc(O)cc1)NC(=O)[C@H](CC(=O)O)NC(=O)[C@H](CO)NC(=O)[C@@H](NC(=O)[C@H](Cc1ccccc1)NC(=O)[C@@H](NC(=O)CNC(=O)[C@H](CCC(=O)O)NC(=O)CSCC(=O)NCCN1C(=O)[C@@H](C)[C@@H](C)C1=O)[C@@H](C)O)[C@@H](C)O)[C@@H](C)CC)C(C)C)C(N)=O)C(=O)O` [Compound 96] here?
Answer: 4 (AUC score 4 = 76-100%)

Question: What about the EC50 (GLP-1R [1]) of the same molecule?
Answer: > 1000 nM

Question: And the EC50 (GLP-1R [2]; EC50 GLP-1R/nM, Table 3, cAMP)?
Answer: 1 to 10 nM

Question: What about the EC50 (GLP-1R [2]; EC50 GLP-1R/nM, Table 3A, cAMP) of the same molecule?
Answer: 1 to 10 nM

Question: What about the Emax (GLP-1R [2]; Table 3, cAMP) of the same molecule?
Answer: 94%

Question: What about the Emax (GLP-1R [2]; Table 3A, cAMP) of the same molecule?
Answer: 94%

Question: What about the EC50 (GIP-R; Table 3, cAMP) of the same molecule?
Answer: 0.1 to 1 nM

Question: And the EC50 (GIP-R; Table 3A, cAMP)?
Answer: 0.1 to 1 nM

Question: What about the Emax (GIP-R; Table 3, cAMP) of the same molecule?
Answer: 90%

Question: And the Emax (GIP-R; Table 3A, cAMP)?
Answer: 90%

Question: What about the CTA score (mice [3]) of the same molecule?
Answer: 4 (Score 4 = 76-100%)

Question: Which results are given for `CCCCCCCCCCCCCCCC(=O)N[C@@H](CCC(=O)NCCCC[C@H](NC(=O)[C@H](CO)NC(=O)[C@@H]1CCCN1C(=O)[C@@H]1CCCN1C(=O)[C@@H]1CCCN1C(=O)[C@H](C)NC(=O)CNC(=O)[C@H](CO)NC(=O)[C@H](CO)NC(=O)[C@@H]1CCCN1C(=O)CNC(=O)CNC(=O)[C@H](C)NC(=O)[C@H](CC(C)C)NC(=O)[C@H](CC(C)C)NC(=O)[C@H](Cc1c[nH]c2ccccc12)NC(=O)[C@H](CC(N)=O)NC(=O)[C@@H](NC(=O)[C@H](Cc1ccccc1)NC(=O)[C@H](CCC(=O)O)NC(=O)C(C)(C)NC(=O)[C@H](C)NC(=O)[C@H](C)NC(=O)[C@H](CCC(N)=O)NC(=O)[C@H](CCCCN)NC(=O)[C@H](CC(=O)O)NC(=O)[C@H](CC(C)C)NC(=O)[C@H](Cc1ccc(O)cc1)NC(=O)[C@@H](NC(=O)[C@H](CO)NC(=O)[C@H](Cc1ccc(O)cc1)NC(=O)[C@H](CC(=O)O)NC(=O)[C@H](CO)NC(=O)[C@@H](NC(=O)[C@H](Cc1ccccc1)NC(=O)[C@@H](NC(=O)CNC(=O)[C@H](CCC(=O)O)NC(=O)CCNC(=O)CN1CCCC1=O)[C@@H](C)O)[C@@H](C)O)[C@@H](C)CC)C(C)C)C(N)=O)C(=O)O` [Compound 264]?
Answer: AUC score (mice [4]; dose range 2-5 nmol/kg): 3 (AUC score 3 = 51-75%); EC50 (GLP-1R [1]): < 10 nM; EC50 (GLP-1R [2]): < 0.1 nM; Emax (GLP-1R [2]): 100%; EC50 (GIP-R; Table 3A, cAMP): 1 to 10 nM; Emax (GIP-R): 90%; CTA score (mice [3]): 1 (Score 1 = 0-25%)

Question: Which “signal in conditioned taste aversion models” value (mice [5]) does the source give for `CCCCCCCCCCCCCCCC(=O)N[C@@H](CCC(=O)NCCCC[C@H](NC(=O)[C@H](C)NC(=O)[C@H](C)NC(=O)[C@H](CCC(N)=O)NC(=O)CNC(=O)[C@H](CCC(=O)O)NC(=O)[C@H](CC(C)C)NC(=O)[C@H](Cc1ccc(O)cc1)NC(=O)[C@H](CO)NC(=O)[C@H](CO)NC(=O)[C@@H](NC(=O)[C@H](CC(=O)O)NC(=O)[C@H](CO)NC(=O)[C@@H](NC(=O)[C@H](Cc1ccccc1)NC(=O)[C@@H](NC(=O)CNC(=O)[C@H](CCC(=O)O)NC(=O)[C@H](C)NC(=O)[C@@H](N)Cc1cnc[nH]1)[C@@H](C)O)[C@@H](C)O)C(C)C)C(=O)N[C@@H](CCC(=O)O)C(=O)N[C@@H](Cc1ccccc1)C(=O)N[C@H](C(=O)N[C@@H](C)C(=O)N[C@@H](Cc1c[nH]c2ccccc12)C(=O)N[C@@H](CC(C)C)C(=O)N[C@H](C(=O)N[C@@H](CCCNC(=N)N)C(=O)NCC(=O)N[C@@H](CCCNC(=N)N)C(=O)NCC(=O)O)C(C)C)[C@@H](C)CC)C(=O)O` [Liraglutide, liraglutide] here?
Answer: strong signal in conditioned taste aversion models

Question: For glucagon-like peptide-1 [GLP-1], which β-arrestin recruitment (GLP-1R [6]) is on record?
Answer: potent recruiters of β-arrestin

Source: patent US20260176320A1, “MODULATORS OF G-PROTEIN COUPLED RECEPTORS” (priority 2018, published 2026)
